Laboratory results taken from patent US20240174680A1, “CDK2 INHIBITORS AND METHODS OF USING THE SAME” (Cedilla Therapeutics, Inc., priority 2021, published 2024).

Each compound was assayed against CDK2/Cyclin E1 (Homo sapiens, UniProt P24941) (assay: CDK2/Cyclin E1 Caliper LabChip EZ Reader mobility shift assay). Conditions: read-out: Caliper Assay (CDK2/CCNE1): IC50.
Format: biochemical
Parameters: purchased Eurofins 14-475
Protocol: Inhibition of CDK2/Cyclin E1 activity in the presence of compounds of the present disclosure was evaluated using a Caliper LabChip® EZ Reader mobility shift assay. In the assay, CDK2/Cyclin E1 (Eurofins, 14-475) catalyzed the phosphorylation of a fluorescently tagged peptide 5-FAM-QSPKKG-CONH2 (PerkinElmer, FL Peptide 18) which induced a difference in capillary electrophoresis mobility. The peptide substrate and product were measured, and the conversion ratio was used to determine the inhibition (as % activity and IC50 values) of CDK2/Cyclin E1. Reactions contained 50 mM HEPES pH 7.5, 10 mM MgCl2, 1 mM EDTA, 2 mM DTT, 0.01% Brij35, 0.5 mg/mL BSA, 0.1% DMSO, 2.5 nM CDK2/Cyclin E1, 100 μM ATP, and 1.5 μM fluorescent peptide substrate.
Dose titrations of inhibitors in 100% DMSO were combined with 3.25 nM CDK2/Cyclin E1 and 130 μM of ATP in reaction buffer. The mixtures were incubated for 30 minutes before the addition of fluorescent peptide substrate to initiate the kinase reaction. The final conditions were 2.5 nM CDK2/Cyclin E1, 100 μM ATP, and 1.5 μM fluorescent peptide. The reactions were stopped after 100 minutes with the addition of EDTA (400 mM final EDTA concentration). The stopped reactions were analyzed on a Caliper LabChip® EZ Reader II. The conversion ratios were normalized to yield % activity, plotted against compound concentration, and fit to a four-parameter equation to determine the IC50 for each compound.

IC50	SMILES
> 10000 nM	CC1(C)C[C@@H]1C(=O)N1CC2(CN(C(=O)c3cnn(Cc4ccccc4)c3)C[C@H]2C(=O)N[C@H]2CCN(C3CC3)C2=O)C1 [I-243]
≤ 10 nM	C[C@@H](OCC1CCC(F)(F)CC1)[C@H](NC(=O)[C@@H]1CN(C(=O)c2cncs2)CC12CN(C(=O)[C@H]1CC1(C)C)C2)C(=O)N1CCC2(CC1)COC2 [I-335]
≤ 10 nM	C[C@@H](OCC1CCCCC1)[C@H](NC(=O)[C@@H]1CN(C(=O)c2cncs2)CC12CN(C(=O)[C@H]1CC1(C)C)C2)C(=O)N1CCC(c2cnc[nH]2)CC1 [I-406]
10 to 100 nM	CNC(=O)C(NC(=O)[C@@H]1CN(C(=O)c2cncs2)CC12CN(C(=O)[C@H]1CC1(C)C)C2)c1cccc(C2CCCCC2)n1 (stereo partly shown) [I-362]
1000 to 10000 nM	CC1(C)C[C@@H]1C(=O)N1CC2(CN(C(=O)c3cnn(Cc4ccccc4)c3)CC2C(=O)Nc2ncc(-c3ccccc3)o2)C1 (stereo partly shown) [I-93]
≤ 10 nM	C[C@@H](OCC1CCCCC1)[C@H](NC(=O)C1CN(C(=O)c2cnn(Cc3ccccc3)c2)CC12CN(C(=O)[C@H]1CC1(C)C)C2)C(=O)N1CC2(CCC2)C1 (stereo partly shown) [I-107]
≤ 10 nM	C[C@@H](OCc1ccccc1)[C@H](NC(=O)[C@@H]1CN(C(=O)c2cnn(Cc3ccccc3)c2)CC12CN(C(=O)[C@H]1CC1(C)C)C2)C(=O)N(C)C [I-409]
> 10000 nM	CNC(=O)[C@@H](NC(=O)[C@@H]1CN(C(=O)c2cnn(Cc3ccccc3)c2)CC12CN(CC(=O)O)C2)[C@@H](C)OCC1CCCCC1 [I-294, 2-((S)-6-(1-benzyl-1H-pyrazole-4-carbonyl)-8-(((2S,3R)-3-(cyclohexylmethoxy)-1-(methylamino)-1-oxobutan-2-yl)carbamoyl)-2,6-diazaspiro[3.4]octan-2-yl)acetic acid]
1000 to 10000 nM	CNC(=O)[C@@H](NC(=O)[C@@H]1CN(C(=O)c2cnn(Cc3ccccc3)c2)CC12CN(C(=O)C(C)(C)C1CC1)C2)[C@@H](C)OCc1ccccc1 [I-276]
≤ 10 nM	C[C@@H](OCC1CCC(F)(F)CC1)[C@H](NC(=O)[C@@H]1CN(C(=O)c2cncs2)CC12CN(C(=O)C(C)(C)C1CC1)C2)C(=O)N1CCC(O)CC1 [I-337]
≤ 10 nM	CNC(=O)C(NC(=O)[C@@H]1CN(C(=O)c2cnn(Cc3ccccc3)c2)CC12CN(C(=O)[C@H]1CC1(C)C)C2)c1cccc(C2CCCCC2)n1 (stereo partly shown) [I-391]
≤ 10 nM	CNC(=O)[C@@H](NC(=O)[C@@H]1CN(C(=O)c2cncs2)CC12CN(C(=O)[C@H]1CC1(C)C)C2)[C@@H](C)OCC1CC2CCC1C2 (stereo partly shown) [I-465]
10 to 100 nM	C[C@@H](OCC1CCOCC1)[C@H](NC(=O)[C@@H]1CN(C(=O)c2cncs2)CC12CN(C(=O)[C@H]1CC1(C)C)C2)C(=O)N1CCC[C@H](COC(F)(F)F)C1 [I-327]
≤ 10 nM	COC[C@H]1CCCN(C(=O)[C@@H](NC(=O)[C@@H]2CN(C(=O)c3cncs3)CC23CN(C(=O)[C@H]2CC2(C)C)C3)[C@@H](C)OCc2ccc(C(F)(F)F)cc2)C1 [I-319]
≤ 10 nM	CNC(=O)[C@@H](NC(=O)[C@@H]1CN(C(=O)c2cnn(Cc3ccc(F)cc3)c2)CC12CN(C(=O)[C@H]1CC1(C)C)C2)[C@@H](C)OCC1CCC(F)(F)CC1 [I-170]
1000 to 10000 nM	CC1(C)C[C@@H]1C(=O)N1CC2(CN(C(=O)c3cnn(Cc4ccccc4)c3)C[C@H]2C(=O)N2CCC[C@H](OCC3CCCCC3)C2)C1 [I-236]
≤ 10 nM	C[C@@H](OCC1CCCCC1)[C@H](NC(=O)[C@@H]1CN(C(=O)c2ccns2)CC12CN(C(=O)[C@H]1CC1(C)C)C2)C(=O)N1CCCCC1 [I-217]
10 to 100 nM	CC1(C)C[C@@H]1C(=O)N1CC2(CN(C(=O)c3cncs3)C[C@H]2C(=O)NC(c2cccc(C3CCCCC3)n2)C2COCCO2)C1 (stereo partly shown) [I-496]
1000 to 10000 nM	C[C@@H](OCC1CCCCC1)[C@H](NC(=O)C1CN(C(=O)C2CCC(=O)N(C)C2)CC12CN(C(=O)[C@H]1CC1(C)C)C2)C(=O)N1CCCCC1 (stereo partly shown) [I-242]
> 10000 nM	CNC(=O)[C@@H](NC(=O)[C@@H]1CN(C(=O)c2cncs2)CC12CN(Cc1ccn[nH]1)C2)[C@@H](C)OCC12CCC(CC1)OC2 [I-351]
≤ 10 nM	C[C@@H](OCC1CCC(F)(F)CC1)[C@H](NC(=O)[C@@H]1CN(C(=O)c2cncs2)CC12CN(C(=O)[C@H]1CC1(C)C)C2)C(=O)N1CCC(CO)CC1 [I-397]
10 to 100 nM	CNC(=O)C(NC(=O)[C@@H]1CN(C(=O)c2cncs2)CC12CN(C(=O)C(C)(C)C1CC1)C2)c1cccc(C2CCCCC2)n1 (stereo partly drawn) [I-410, (8S)—N-(1-(6-cyclohexylpyridin-2-yl)-2-(methylamino)-2-oxoethyl)-2-(2-cyclopropyl-2-methylpropanoyl)-6-(thiazole-5-carbonyl)-2,6-diazaspiro[3.4]octane-8-carboxamide]
10 to 100 nM	CNC(=O)[C@@H](NC(=O)[C@@H]1CN(C(=O)c2cnn(Cc3ccccc3)c2)CC12CN(C(=O)[C@H]1CC1(C)C)C2)[C@@H](C)OC[C@H]1CC[C@H](OC)CC1 [I-403]
10 to 100 nM	C[C@@H](OC(C)(C)C1CCCCC1)[C@H](NC(=O)[C@@H]1CN(C(=O)c2cncs2)CC12CN(C(=O)[C@H]1CC1(C)C)C2)C(=O)N1CCCCC1 [I-395]
≤ 10 nM	COC(=O)c1ccc(C2CCN(C(=O)[C@@H](NC(=O)[C@@H]3CN(C(=O)c4cnn(Cc5ccccc5)c4)CC34CN(C(=O)[C@H]3CC3(C)C)C4)[C@@H](C)OCC3CCCCC3)CC2)cc1 [I-147]
10 to 100 nM	C[C@@H](OCc1ccccc1)[C@H](NC(=O)C1CN(C(=O)c2cnn(Cc3ccccc3)c2)CC12CN(C(=O)[C@H]1CC1(C)C)C2)C(=O)N1CCC(F)(F)CC1 (stereo partly shown) [I-85]
≤ 10 nM	CNC(=O)[C@@H](NC(=O)[C@@H]1CN(C(=O)c2cnn(Cc3ccccc3)c2)CC12CN(C(=O)[C@H]1CC1(C)C)C2)C1(OCC2CCCCC2)CC1 [I-396]
≤ 10 nM	COC[C@H]1CCCN(C(=O)[C@@H](NC(=O)[C@@H]2CN(C(=O)c3cncs3)CC23CN(C(=O)[C@H]2CC2(C)C)C3)[C@@H](C)OC(C)C2CCCCC2)C1 (stereo partly shown) [I-374]

Second part, the compound before the results:

SMILES	IC50
CNC(=O)[C@@H](NC(=O)[C@@H]1CN(C(=O)c2scnc2C)CC12CN(C(=O)[C@H]1CC1(C)C)C2)[C@@H](C)OCC1CCCCC1 [I-160A]	10 to 100 nM
CNC(=O)[C@@H](NC(=O)[C@@H]1CN(C(=O)c2ccncc2)CC12CN(C(=O)[C@H]1CC1(C)C)C2)[C@@H](C)OCc1ccccc1 [I-46A]	> 10000 nM
CNC(=O)[C@@H](NC(=O)[C@@H]1CN(C(=O)c2cnn(Cc3ccccc3)c2)CC12CN(C(=O)[C@H]1CC1(C)C)C2)[C@@H](C)OCC1CCCCCC1 [I-166A]	≤ 10 nM
CNC(=O)[C@H](COCc1ccccc1)NC(=O)[C@@H]1CN(C(=O)c2cnn(Cc3ccccc3)c2)CC12CN(C(=O)C(C)(C)C)C2 [I-100A]	1000 to 10000 nM
CNC(=O)[C@@H](NC(=O)[C@]1(C)CN(C(=O)c2cnn(Cc3ccccc3)c2)CC12CN(C(=O)[C@H]1CC1(C)C)C2)[C@@H](C)OCC1CCCCC1 [I-499A]	1000 to 10000 nM
CC1(C)C[C@@H]1C(=O)N1CC2(CN(C(=O)c3cnn(Cc4ccccc4)c3)C[C@@H]2C(=O)NCc2nnc[nH]2)C1 [I-191B]	> 10000 nM
CNC(=O)[C@@H](NC(=O)[C@H]1CN(C(=O)c2cnn(Cc3ccccc3)c2)CC12CN(C(=O)C1(F)CC1)C2)[C@@H](C)OCc1ccccc1 [I-71B]	> 10000 nM
CNC(=O)[C@@H](NC(=O)[C@@H]1CN(C(=O)c2cnn(Cc3ccccc3)c2)CC12CN(C(=O)CC1CCC1)C2)[C@@H](C)OCc1ccccc1 [I-27A]	1000 to 10000 nM
CNC(=O)[C@@H](NC(=O)[C@H]1CN(C(=O)c2cncs2)CC12CN(C(=O)CC1CC1)C2)[C@@H](C)OCC1CCCCC1 [I-103B]	> 10000 nM
CC1(C)C[C@@H]1C(=O)N1CC2(CN(C(=O)c3cnn(Cc4ccccc4)c3)C[C@H]2C(=O)N[C@H]2CCCN(C(=O)c3ccccc3)C2)C1 [I-83A]	1000 to 10000 nM
CNC(=O)[C@@H](NC(=O)[C@H]1CN(C(=O)C2CCOCC2)CC12CN(C(=O)[C@H]1CC1(C)C)C2)[C@@H](C)OCc1ccccc1 [I-38B]	> 10000 nM
CNC(=O)[C@@H](NC(=O)[C@@H]1CN(C(=O)c2cnn(Cc3ccccc3)c2)CC12CN(C(=O)[C@H]1CC1(C)C)C2)[C@@H](C)OCC1CCOCC1 [I-119A]	100 to 1000 nM
CCC(CC)C(=O)N1CC2(CN(C(=O)c3cnn(Cc4ccccc4)c3)C[C@H]2C(=O)N[C@H](C(=O)NC)[C@@H](C)OCc2ccccc2)C1 [I-74A]	1000 to 10000 nM
CNC(=O)[C@@H](NC(=O)[C@@H]1CN(C(=O)c2cnc(C(C)(C)C)s2)CC12CN(C(=O)[C@H]1CC1(C)C)C2)[C@@H](C)OCC1CCCCC1 [I-229A]	> 10000 nM
CNC(=O)[C@@H](NC(=O)[C@@H]1CN(C(=O)c2cnn(Cc3ccccc3)c2)CC12CN(C(=O)C(C)C)C2)[C@@H](C)OCc1ccccc1 [I-54A]	100 to 1000 nM
CNC(=O)[C@@H](NC(=O)[C@@H]1CN(C(=O)c2cnn(Cc3ccccc3)c2)CC12CN(C(=O)[C@H]1CC1(C)C)C2)[C@@H](C)OCC(C)C [I-137A]	100 to 1000 nM
CNC(=O)[C@@H](NC(=O)[C@H]1CN(C(=O)c2cnn(Cc3ccccc3)c2)CC12CN(C(=O)C1(C(F)(F)F)CC1)C2)[C@@H](C)OCc1ccccc1 [I-108B]	> 10000 nM
COc1cccc(CNC(=O)[C@@H]2CN(C(=O)c3cnn(Cc4ccccc4)c3)CC23CN(C(=O)[C@H]2CC2(C)C)C3)n1 [I-126A]	> 10000 nM
